# Assay results from PubChem BioAssay (NCI).
#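 Exposure lasted 48 hours, with cells grown in 96-well plates and compounds tested at five concentrations. TGI: total growth inhibition.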
# Key:
# Assay in all cases: growth of human tumour cells (NCI), 48 h
# MALME-3M melanoma = test system: MALME-3M melanoma
# PC-3 prostate = test system: PC-3 prostate
# MCF7 breast = test system: MCF7 breast
# MDA-MB-231 breast = test system: MDA-MB-231 breast
# SR leukemia = test system: SR leukemia
# SF-268 CNS = test system: SF-268 CNS
# UACC-257 melanoma = test system: UACC-257 melanoma
# UO-31 renal = test system: UO-31 renal
# NCI-H23 lung = test system: NCI-H23 lung
# MOLT-4 leukemia = test system: MOLT-4 leukemia
SMILES,TGI (MALME-3M melanoma) [µM],TGI (PC-3 prostate) [µM],TGI (MCF7 breast) [µM],TGI (MDA-MB-231 breast) [µM],TGI (SR leukemia) [µM],TGI (SF-268 CNS) [µM],TGI (UACC-257 melanoma) [µM],TGI (UO-31 renal) [µM],TGI (NCI-H23 lung) [µM],TGI (MOLT-4 leukemia) [µM]
COC(=O)c1c(C#C[Si](C)(C)C)c(C#C[Si](C)(C)C)c(C#C[Si](C)(C)C)c(C#C[Si](C)(C)C)c1C(=O)OC,> 100,> 100,> 100,> 100,> 100,> 100,> 100,> 100,> 100,> 100
COc1ccc(NC(=S)NNC(=O)c2cc(-c3ccccc3)nc3ccccc23)cc1,54,55.1,17,51.2,9.79,90.1,46.9,26.3,30.6,59.2
CCCC(=O)OC1CC(n2cc(F)c(=O)[nH]c2=O)OC1CO (stereo not given),> 10,> 10,> 10,> 10,> 10,> 10,> 10,> 10,1.11,> 10
CCOC(=O)c1cn(C)nc1N/C(C)=C\C(=O)c1ccccc1,> 100,> 100,> 100,> 100,> 100,> 100,> 100,> 100,> 100,> 100
CN(C)c1ccc(/C=C2\C[C@H]3[C@@H]4CCc5cc(O)ccc5[C@H]4CC[C@]3(C)C2=O)cc1,> 100,> 100,> 100,69,> 100,61,> 100,> 100,> 100,> 100
OC(O)(C(F)(F)F)C(F)(F)F,> 100,> 100,> 100,> 100,> 100,> 100,> 100,> 100,> 100,> 100
N#Cc1c(C#N)c(-c2ccccc2)n(/N=C\c2ccccc2)c1N,> 100,49.4,> 100,65.3,82.9,> 100,70.3,81.8,> 100,30.9
CSC1NNC2(C(=O)N1)c1ccccc1-c1ccccc12 (stereo not given),> 10,> 10,> 10,> 10,> 10,> 10,> 10,> 10,> 10,> 10
Cc1nn(-c2ccccn2)c2c1C(SC#N)=C(C=O)CC2,36.2,33.8,24.2,31.9,34.3,33,17.8,29.1,32.2,6.95
CCOC(=O)c1cc(-c2ccn(C(C)=O)c2)c(-c2cc(C)co2)[nH]1,> 100,> 100,> 100,> 100,> 100,> 100,> 100,> 100,> 100,> 100
c1ccc2c(c1)c1c3n2-c2cc(on2)C3CCC1 (stereo not given),> 100,> 100,> 100,> 100,> 100,> 100,> 100,> 100,> 100,> 100
COc1ccc(C(C)NNC(=O)c2ccncc2)cc1F (stereo not given),> 100,> 100,> 100,> 100,> 100,> 100,> 100,> 100,> 100,> 100
CCOC(=O)C1=C(C)N(c2ccc(C)cc2)C2(O)C=CC(=O)C3=C(O)c4ccccc4C(=O)C312 (stereo not given),43.1,> 100,63,> 100,2.6,> 100,57.9,40,> 100,1.26
O=C(NCc1cccnc1)C(=O)NCc1cccnc1,> 100,> 100,> 100,> 100,> 100,> 100,> 100,> 100,> 100,> 100
N#Cc1c(-c2ccc(Cl)cc2)cc(-c2nc3ccccc3[nH]2)nc1N,32.5,32.6,20.1,26.8,35.1,34.6,18.5,21.9,35.3,26.8
O=C(NC/C=C/Br)NC1CCNc2ccccc21 (stereo not given),77.9,> 100,47.9,> 100,61.8,> 100,54.9,62.6,55.4,95.4
